Among the data in patent US12338220B2, “Antiviral pyrazolopiridinone compounds” (Novartis AG, priority 2019, dated 2025) are IC50 and EC50 values, retold here.

By IC50 is commonly meant the concentration at which inhibition is half-maximal. Usually EC50 stands for the concentration needed to bring the measured effect to its halfway point.

The structures appear in SMILES notation. Like-named read-outs stand apart in the source and are kept apart here. Bounds are passed on as bounds.

In one assay the target is CMV-polymerase (Human cytomegalovirus (strain AD169) (HHV-5) (Human herpesvirus 5), UniProt P08546). The assay is described as follows: biochemical.
The test system of a further assay is CMV. The assay is described as follows: microbe, parasite or virus in culture. As to conditions: Human betaherpesvirus 5, 72 h, read-out: CMV-Luc Cellular EC50, NN-NHDF cells, MOI 1, 72 hrs. It is filed as cell-based.
Setting [1] is: read-out: CMV-polymerase Biochemical IC50.
[2] abbreviates: CMV-polymerase Biochemical IC50.

Consider `Cn1nc(C(=O)NCc2ccc(C#N)cc2)c2c1C(=O)N(CC1(S(=O)(=O)NC3CC3)CC1)CC2` [Example 129, N-(4-cyanobenzyl)-6-((1-(N-cyclopropylsulfamoyl)cyclopropyl)methyl)-1-methyl-7-oxo-4,5,6,7-tetrahydro-1H-pyrazolo[3,4-c]pyridine-3-carboxamide], for which, at CMV-polymerase (setting [1]), the IC50 is 16 nM. Further, the EC50 with CMV worked out at 247 nM.
For the molecule `Cn1nc(C(=O)NCc2ccc(C#N)cc2)c2c1C(=O)N(CC1(S(=O)(=O)C(C)(C)CN3CCOCC3)CC1)CC2` [Example 61, N-(4-Cyanobenzyl)-1-methyl-6-((1-((2-methyl-1-morpholinopropan-2-yl)sulfonyl)cyclopropyl)methyl)-7-oxo-4,5,6,7-tetrahydro-1H-pyrazolo[3,4-c]pyridine-3-carboxamide], the IC50 at CMV-polymerase (setting [1]) was 6 nM. Also, in the assay on CMV, the EC50 is 145 nM.
For `C[C@H](NC(=O)c1nn(C)c2c1CCN(CC1(S(=O)(=O)C3CC3)CC1)C2=O)c1ccc(C#N)cc1` [Example 16, (S)-N-(1-(4-Cyanophenyl)ethyl)-6-((1-(cyclopropylsulfonyl)cyclopropyl)methyl)-1-methyl-7-oxo-4,5,6,7-tetrahydro-1H-pyrazolo[3,4-c]pyridine-3-carboxamide], in that order: 13 nM and 170 nM.
For `Cn1nc(C(=O)NCc2ccc(Cl)s2)c2c1C(=O)N(CC1(S(=O)(=O)C3CC3)CC1)CC2` [Example 10, N-((5-Chlorothiophen-2-yl)methyl)-6-((1-(cyclopropylsulfonyl)cyclopropyl)methyl)-1-methyl-7-oxo-4,5,6,7-tetrahydro-1H-pyrazolo[3,4-c]pyridine-3-carboxamide], in that order: 26 nM and 259 nM.
Molecule `CC(C)(CO)S(=O)(=O)C1(CN2CCc3c(C(=O)NCc4ccc(C#N)cc4)n[nH]c3C2=O)CC1` [Example 49, N-(4-Cyanobenzyl)-6-((1-((1-hydroxy-2-methylpropan-2-yl)sulfonyl)cyclopropyl)methyl)-7-oxo-4,5,6,7-tetrahydro-1H-pyrazolo[3,4-c]pyridine-3-carboxamide] yielded an IC50 on CMV-polymerase (setting [2]) of 4 nM. In addition, the EC50 in the assay with CMV was 58 nM.
With `CCS(=O)(=O)C1(CN2CCc3c(C(=O)NCc4ccc(C#N)cc4)nn(CC(C)(C)O)c3C2=O)CC1` [Example 233, N-(4-Cyanobenzyl)-6-((1-(ethylsulfonyl)cyclopropyl)methyl)-1-(2-hydroxy-2-methylpropyl)-7-oxo-4,5,6,7-tetrahydro-1H-pyrazolo[3,4-c]pyridine-3-carboxamide], the 50% inhibitory concentration (IC50) at CMV-polymerase (setting [1]) came out at 2 nM. For the same molecule, in the assay on CMV, the half-maximal effective concentration (EC50) worked out at 96 nM.
For `Cn1nc(C(=O)NCc2ccc(F)cc2)c2c1C(=O)N(CC1(S(=O)(=O)C3CC3)CC1)CC2` [Example 5, 6-((1-(Cyclopropylsulfonyl)cyclopropyl)methyl)-N-(4-fluorobenzyl)-1-methyl-7-oxo-4,5,6,7-tetrahydro-1H-pyrazolo[3,4-c]pyridine-3-carboxamide], in that order: 30 nM and 284 nM.
For `CN(CCO)S(=O)(=O)C1(CN2CCc3c(C(=O)NCc4ccc(C#N)cc4)nn(C)c3C2=O)CC1` [Example 146, N-(4-Cyanobenzyl)-6-((1-(N-(2-hydroxyethyl)-N-methylsulfamoyl)cyclopropyl)methyl)-1-methyl-7-oxo-4,5,6,7-tetrahydro-1H-pyrazolo[3,4-c]pyridine-3-carboxamide] the same measures were 3 nM and 61 nM.
With `Cn1nc(C(=O)N[C@H](CO)c2ccc(Cl)cc2)c2c1C(=O)N(CC1(S(=O)(=O)C3CC3)CC1)CC2` [Example 19, (S)-N-(1-(4-Chlorophenyl)-2-hydroxyethyl)-6-((1-(cyclopropylsulfonyl)cyclopropyl)methyl)-1-methyl-7-oxo-4,5,6,7-tetrahydro-1H-pyrazolo[3,4-c]pyridine-3-carboxamide], the half-inhibitory concentration (IC50) at CMV-polymerase (setting [1]) came out at 55 nM. For the same molecule, the half-maximal effective concentration (EC50) in the assay on CMV is more than 10000 nM.
For `Cn1nc(C(=O)NCc2ccc(C#N)cc2)c2c1C(=O)N(CC1(S(=O)(=O)C(C)(C)CN3CC4(COC4)C3)CC1)CC2` [Example 67, N-(4-Cyanobenzyl)-1-methyl-6-((1-((2-methyl-1-(2-oxa-6-azaspiro[3.3]heptan-6-yl)propan-2-yl)sulfonyl)cyclopropyl)methyl)-7-oxo-4,5,6,7-tetrahydro-1H-pyrazolo[3,4-c]pyridine-3-carboxamide] the same measures were 2 nM and 82 nM.
`COc1cccc(NS(=O)(=O)C2(CN3CCc4c(C(=O)NCc5ccc(C#N)cc5)nn(C)c4C3=O)CC2)n1` [Example 163, N-(4-Cyanobenzyl)-6-((1-(N-(6-methoxypyridin-2-yl)sulfamoyl)cyclopropyl)methyl)-1-methyl-7-oxo-4,5,6,7-tetrahydro-1H-pyrazolo[3,4-c]pyridine-3-carboxamide]: on CMV-polymerase (setting [1]), the IC50 was determined as 2 nM. Further, in the assay with CMV, the EC50 came out at 67 nM.
Turning to `Cn1nc(C(=O)NCc2ccc(C#N)cc2)c2c1C(=O)N(CC1(S(=O)(=O)C(C)(C)C#N)CC1)CC2` [Example 59, N-(4-Cyanobenzyl)-6-((1-((2-cyanopropan-2-yl)sulfonyl)cyclopropyl)methyl)-1-methyl-7-oxo-4,5,6,7-tetrahydro-1H-pyrazolo[3,4-c]pyridine-3-carboxamide], half-maximal inhibition against CMV-polymerase (setting [2]) (IC50) required 1 nM. For the same molecule, the EC50 with CMV worked out at 33 nM.
For `CC1(S(=O)(=O)C2(CN3CCc4c(C(=O)NCc5ccc(C#N)cc5)nn(CCCO)c4C3=O)CC2)CC1` [Example 237, N-(4-Cyanobenzyl)-1-(3-hydroxypropyl)-6-((1-((1-methylcyclopropyl)sulfonyl)cyclopropyl)methyl)-7-oxo-4,5,6,7-tetrahydro-1H-pyrazolo[3,4-c]pyridine-3-carboxamide], on CMV-polymerase (setting [1]), the concentration for half-maximal inhibition (IC50) was determined as 2 nM. In addition, the concentration for a half-maximal effect (EC50) in the assay with CMV stood at 38 nM.
With `Cn1nc(-c2nnc(Cc3ccc(C#N)cc3)o2)c2c1C(=O)N(CC1(S(=O)(=O)C3CC3)CC1)CC2` [Example 26, 4-((5-(6-((1-(Cyclopropylsulfonyl)cyclopropyl)methyl)-1-methyl-7-oxo-4,5,6,7-tetrahydro-1H-pyrazolo[3,4-c]pyridin-3-yl)-1,3,4-oxadiazol-2-yl)methyl)benzonitrile], half-maximal inhibition against CMV-polymerase (setting [2]) (IC50) was put at 52 nM. Besides, in the assay on CMV, the EC50 stood at 761 nM.
For the molecule `Cn1nc(C(=O)NCc2ccc(C#N)cc2)c2c1C(=O)N(CC1(S(=O)(=O)N3CCC(C)(O)C3)CC1)CC2` (single isomer, unassigned) [Example 130, (R)- or (S)-N-(4-Cyanobenzyl)-6-((1-((3-hydroxy-3-methylpyrrolidin-1-yl)sulfonyl)cyclopropyl)methyl)-1-methyl-7-oxo-4,5,6,7-tetrahydro-1H-pyrazolo[3,4-c]pyridine-3-carboxamide], the IC50 on CMV-polymerase (setting [1]) was 7 nM. For the same molecule, in the assay on CMV, the half-maximal effective concentration (EC50) is 163 nM.
As to `Cn1nc(C(=O)NCc2ccc(C#N)cc2)c2c1C(=O)N(CC1(S(=O)(=O)C(C)(CN)CO)CC1)CC2` (centres unmarked) [Example 183, 6-((1-((1-Amino-3-hydroxy-2-methylpropan-2-yl)sulfonyl)cyclopropyl)methyl)-N-(4-cyanobenzyl)-1-methyl-7-oxo-4,5,6,7-tetrahydro-1H-pyrazolo[3,4-c]pyridine-3-carboxamide], the IC50 at CMV-polymerase (setting [1]) came to 5 nM. For the same molecule, the concentration giving a half-maximal response (EC50) with CMV worked out at 220 nM.
For `Cn1nc(C(=O)NCc2ccc(Cl)cc2)c2c1C(=O)N(CC1(S(=O)(=O)C3(C(O)CN)CC3)CC1)CC2` (centres unmarked) [Example 209, 6-((1-((1-(2-Amino-1-hydroxyethyl)cyclopropyl)sulfonyl)cyclopropyl)methyl)-N-(4-chlorobenzyl)-1-methyl-7-oxo-4,5,6,7-tetrahydro-1H-pyrazolo[3,4-c]pyridine-3-carboxamide] the same measures were 1 nM and 10 nM.
On CMV-polymerase (setting [2]), `CNC(=O)C(C)(C)S(=O)(=O)C1(CN2CCc3c(C(=O)NCc4ccc(Cl)cc4)nn(C)c3C2=O)CC1` [Example 110, N-(4-Chlorobenzyl)-1-methyl-6-((1-((2-methyl-1-(methylamino)-1-oxopropan-2-yl)sulfonyl)cyclopropyl)methyl)-7-oxo-4,5,6,7-tetrahydro-1H-pyrazolo[3,4-c]pyridine-3-carboxamide] showed an IC50 of 5 nM. Besides, in the assay with CMV, the EC50 worked out at 218 nM.
Turning to `Cn1nc(C(=O)NCc2ccc(Cl)cc2)c2c1C(=O)N(CC1(S(=O)(=O)NC(C)(CO)CO)CC1)CC2` [Example 153, N-(4-Chlorobenzyl)-6-((1-(N-(1,3-dihydroxy-2-methylpropan-2-yl)sulfamoyl)cyclopropyl)methyl)-1-methyl-7-oxo-4,5,6,7-tetrahydro-1H-pyrazolo[3,4-c]pyridine-3-carboxamide], the IC50 at CMV-polymerase (setting [1]) came to 20 nM. Moreover, the concentration giving a half-maximal response (EC50) in the assay with CMV is 305 nM.
For `Cn1nc(C(=O)NCc2ccc(C#N)cc2)c2c1C(=O)N(CC1(S(=O)(=O)NCCN)CC1)CC2` [Example 135, 6-((1-(N-(2-Aminoethyl)sulfamoyl)cyclopropyl)methyl)-N-(4-cyanobenzyl)-1-methyl-7-oxo-4,5,6,7-tetrahydro-1H-pyrazolo[3,4-c]pyridine-3-carboxamide], in that order: 62 nM and 536 nM.
As to `Cc1cccc(NS(=O)(=O)C2(CN3CCc4c(C(=O)NCc5ccc(C#N)cc5)nn(C)c4C3=O)CC2)n1` [Example 157, N-(4-Cyanobenzyl)-1-methyl-6-((1-(N-(6-methylpyridin-2-yl)sulfamoyl)cyclopropyl)methyl)-7-oxo-4,5,6,7-tetrahydro-1H-pyrazolo[3,4-c]pyridine-3-carboxamide], the IC50 on CMV-polymerase (setting [1]) was determined as 2 nM. In addition, the EC50 in the assay with CMV stood at 58 nM.
On to `CNS(=O)(=O)C1(CN2CCc3c(C(=O)NCc4ccc(Cl)cc4)nn(C)c3C2=O)CC1` [Example 151, N-(4-Chlorobenzyl)-1-methyl-6-((1-(N-methylsulfamoyl)cyclopropyl)methyl)-7-oxo-4,5,6,7-tetrahydro-1H-pyrazolo[3,4-c]pyridine-3-carboxamide], for which, on CMV-polymerase (setting [1]), the IC50 came to 8 nM. Besides, the EC50 in the assay on CMV amounted to 64 nM.
